Assay results from patent US8143484B2, “Method for regulating agrobacterium-mediated transformation” (priority 2008, dated 2012).

Experiments:
[1] = system: P898012 sorghum immature embryos; test: Phenolic compound production by infected, cultured sorghum immature embryos (visual exudates); type: cell-based; conditions: infected and cultured immature zygotic embryos of sorghum (FIG. 3)
Procedure: Transformation was carried out in 6 distinctive but sequential phases. Freshly isolated embryos of P898012 or GS3 were mixed together or separated into 1.5 mL of medium 700 either lacking or containing […] acetosyringone. The concentration of A. tumefaciens harbouring the vector PHP15303 (FIG. 5) in the suspension was adjusted to 0.857×10^9 cfu/mL [Optical Density (OD) approximately 0.6 at 550 nm]. The infection suspension was vortexed gently for 15 seconds, poured into 1 cm-diameter microplates and vacuumed for 5 minutes with gentle rocking for mixing. • 2. The Agrobacterium suspension was then aspirated and the embryos plated on co-cultivation medium 710B either lacking or containing […] acetosyringone for 3 days (co-cultivation) and cultured in the dark at 25° C. • 3. […]
Cultured immature zygotic embryos of the sorghum genotype P898012 produce phenolic compounds which can be visually identified as black/dark brown exudates within the proximity of the embryos on tissue culture medium (FIG. 2 (I) and FIG. 1 (J)). When these immature embryos are infected with A. tumefaciens, higher quantities of these phenolic compounds are produced, especially when the medium on which the embryos are cultured is not supplemented with the synthetic acetosyringone (contrast FIGS. 2 (A & B) vs. FIGS. 2 (D & E)).

sorghum = conditions: acetosyringone alone used to induce vir gene expression; cited from earlier work
lillies = conditions: addition of acetosyringone; cited from earlier work
wheat = conditions: 200 μM instead of the usual 100 μM; cited from earlier work

COc1cc(C(C)=O)cc(OC)c1O [acetosyringone, 4-acetyl-2,6-dimethoxyphenol]
effect on production of phenolic compounds [1]: depresses the production of phenolic compounds
Agrobacterium transformation efficiency (sorghum): very low
effect on transformation efficiency (lillies): does not have any effect on transformation efficiency
T-DNA transfer and transformation efficiency (wheat): higher levels of T-DNA transfer and transformation efficiency
